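Tested at 5 concentrations; 48 h exposure; 96-well plates; endpoints linearly interpolated, else capped at highest concentration. Abbreviation: GI50, concentration required for 50% inhibition of growth.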 Active and inactive are the calls of the source. Cut-off read from the data, not from the text of the source: active = GI50 up to about 1.1 µM and inactive = higher.
Key:
Assay in all cases: NCI tumour cell line growth inhibition, 48 h
OVCAR-3 = test system: OVCAR-3
HT-29 = test system: HT-29
HCT-116 = test system: HCT-116
T47D = test system: T47D
NCI-H23 = test system: NCI-H23
SK-MEL-5 = test system: SK-MEL-5
PC-3 = test system: PC-3
M14 = test system: M14
SK-OV-3 = test system: SK-OV-3
MCF7 = test system: MCF7
SF-295 = test system: SF-295
MDA-MB-231 = test system: MDA-MB-231
SF-539 = test system: SF-539
UACC-62 = test system: UACC-62
NCI-H522 = test system: NCI-H522
SF-268 = test system: SF-268
U-251 = test system: U-251
SNB-75 = test system: SNB-75
Malme-3M = test system: Malme-3M
OVCAR-4 = test system: OVCAR-4

SMILES	GI50 (OVCAR-3)	GI50 (HT-29)	GI50 (HCT-116)	GI50 (T47D)	GI50 (NCI-H23)	GI50 (SK-MEL-5)	GI50 (PC-3)	GI50 (M14)	GI50 (SK-OV-3)	GI50 (MCF7)	GI50 (SF-295)	GI50 (MDA-MB-231)	GI50 (SF-539)	GI50 (UACC-62)	GI50 (NCI-H522)	GI50 (SF-268)	GI50 (U-251)	GI50 (SNB-75)	GI50 (Malme-3M)	GI50 (OVCAR-4)
O=C(NC1(C(=O)O)CCCC1)c1ccccc1	> 100 µM (inactive)	> 100 µM (inactive)	> 100 µM (inactive)	> 100 µM (inactive)	> 100 µM (inactive)	> 100 µM (inactive)	> 100 µM (inactive)	> 100 µM (inactive)	> 100 µM (inactive)	> 100 µM (inactive)	> 100 µM (inactive)	> 100 µM (inactive)	> 100 µM (inactive)	> 100 µM (inactive)	> 100 µM (inactive)	> 100 µM (inactive)	> 100 µM (inactive)	–	–	–
O=C(O)CCSCc1ccc(I)cc1	> 100 µM (inactive)	> 100 µM (inactive)	> 100 µM (inactive)	> 100 µM (inactive)	> 100 µM (inactive)	> 100 µM (inactive)	> 100 µM (inactive)	> 100 µM (inactive)	> 100 µM (inactive)	> 100 µM (inactive)	> 100 µM (inactive)	> 100 µM (inactive)	–	> 100 µM (inactive)	> 100 µM (inactive)	> 100 µM (inactive)	> 100 µM (inactive)	72.4 µM (inactive)	> 100 µM (inactive)	> 100 µM (inactive)
CCCCN(c1ccccc1)c1ncnc2c1cnn2C	24.8 µM (inactive)	29.9 µM (inactive)	40.6 µM (inactive)	20.2 µM (inactive)	30.1 µM (inactive)	> 100 µM (inactive)	27.5 µM (inactive)	48.2 µM (inactive)	50.1 µM (inactive)	32.4 µM (inactive)	32.5 µM (inactive)	26.6 µM (inactive)	–	31.2 µM (inactive)	19.9 µM (inactive)	34.8 µM (inactive)	44.2 µM (inactive)	11.7 µM (inactive)	25.2 µM (inactive)	27.1 µM (inactive)
Cc1ccc(S(=O)(=O)ON2C(=O)c3cccc4cc([N+](=O)[O-])cc(c34)C2=O)cc1	35.3 µM (inactive)	28.6 µM (inactive)	45.3 µM (inactive)	51.6 µM (inactive)	> 100 µM (inactive)	69.3 µM (inactive)	> 100 µM (inactive)	> 100 µM (inactive)	38.9 µM (inactive)	33.7 µM (inactive)	> 100 µM (inactive)	56.2 µM (inactive)	–	49.9 µM (inactive)	56.2 µM (inactive)	79.3 µM (inactive)	> 100 µM (inactive)	41.9 µM (inactive)	44.2 µM (inactive)	93.1 µM (inactive)
OC(c1ccc(-c2ccccc2)cc1)(c1ccc(-c2ccccc2)cc1)c1ccc(-c2ccccc2)cc1	> 100 µM (inactive)	> 100 µM (inactive)	> 100 µM (inactive)	> 100 µM (inactive)	> 100 µM (inactive)	> 100 µM (inactive)	> 100 µM (inactive)	52.7 µM (inactive)	> 100 µM (inactive)	> 100 µM (inactive)	> 100 µM (inactive)	53.7 µM (inactive)	–	> 100 µM (inactive)	> 100 µM (inactive)	> 100 µM (inactive)	> 100 µM (inactive)	–	–	> 100 µM (inactive)
COc1ccc(C2C3=C(Nc4ncnn42)c2ccccc2OC3c2ccccc2)cc1 (configuration not stated)	27.8 µM (inactive)	–	18.9 µM (inactive)	13.7 µM (inactive)	43.6 µM (inactive)	14.9 µM (inactive)	27.4 µM (inactive)	61.8 µM (inactive)	37.5 µM (inactive)	13.5 µM (inactive)	27.8 µM (inactive)	49.1 µM (inactive)	40 µM (inactive)	17.3 µM (inactive)	–	42.6 µM (inactive)	42.3 µM (inactive)	–	–	–
CC(C)(NO)/C(=N\O)c1ccco1	> 100 µM (inactive)	> 100 µM (inactive)	> 100 µM (inactive)	> 100 µM (inactive)	> 100 µM (inactive)	> 100 µM (inactive)	> 100 µM (inactive)	> 100 µM (inactive)	> 100 µM (inactive)	> 100 µM (inactive)	> 100 µM (inactive)	> 100 µM (inactive)	> 100 µM (inactive)	> 100 µM (inactive)	–	> 100 µM (inactive)	> 100 µM (inactive)	–	> 100 µM (inactive)	> 100 µM (inactive)
CC(=O)Oc1ccc2cc(-c3ccc(OC(C)=O)c(OC(C)=O)c3)c(=O)oc2c1	18.4 µM (inactive)	> 100 µM (inactive)	60.3 µM (inactive)	24.5 µM (inactive)	> 100 µM (inactive)	–	84.5 µM (inactive)	74.8 µM (inactive)	–	> 100 µM (inactive)	52.8 µM (inactive)	> 100 µM (inactive)	> 100 µM (inactive)	–	44.4 µM (inactive)	63.2 µM (inactive)	67.1 µM (inactive)	–	> 100 µM (inactive)	27.1 µM (inactive)
C[C@H]1CC[C@@]2(NC1)O[C@H]1C[C@H]3[C@@H]4CC[C@H]5C[C@@H](O)CC[C@]5(C)[C@H]4CC[C@]3(C)[C@H]1[C@@H]2C	54.2 µM (inactive)	47.9 µM (inactive)	54.8 µM (inactive)	> 100 µM (inactive)	85.5 µM (inactive)	90.4 µM (inactive)	> 100 µM (inactive)	> 100 µM (inactive)	> 100 µM (inactive)	> 100 µM (inactive)	55.7 µM (inactive)	32.2 µM (inactive)	> 100 µM (inactive)	> 100 µM (inactive)	59.4 µM (inactive)	74.8 µM (inactive)	–	57.5 µM (inactive)	–	35.6 µM (inactive)
O=C(Nc1ccc(Cl)cc1)c1cc(S(=O)(=O)Nc2nnc3c(Cl)cc(C(F)(F)F)cn23)c(S)cc1Cl	> 100 µM (inactive)	51.9 µM (inactive)	68.1 µM (inactive)	> 100 µM (inactive)	59.7 µM (inactive)	96.4 µM (inactive)	83 µM (inactive)	> 100 µM (inactive)	41.9 µM (inactive)	> 100 µM (inactive)	44.6 µM (inactive)	33.8 µM (inactive)	> 100 µM (inactive)	–	80 µM (inactive)	70 µM (inactive)	56.5 µM (inactive)	–	> 100 µM (inactive)	> 100 µM (inactive)
COC(=O)C1=C(C(=O)OC)C(C(=O)c2ccccc2)N2N=C(c3ccc(Cl)cc3)C=CC12 (configuration not stated)	> 100 µM (inactive)	9.59 µM (inactive)	3.48 µM (inactive)	> 100 µM (inactive)	26.1 µM (inactive)	9.23 µM (inactive)	9.82 µM (inactive)	> 100 µM (inactive)	> 100 µM (inactive)	75.7 µM (inactive)	44.7 µM (inactive)	> 100 µM (inactive)	> 100 µM (inactive)	23.9 µM (inactive)	5.07 µM (inactive)	6.55 µM (inactive)	> 100 µM (inactive)	–	11.2 µM (inactive)	19.2 µM (inactive)
Nc1nc(N)nc(-c2cnc3ccccc3c2)n1	> 100 µM (inactive)	–	> 100 µM (inactive)	> 100 µM (inactive)	> 100 µM (inactive)	–	> 100 µM (inactive)	> 100 µM (inactive)	87.9 µM (inactive)	> 100 µM (inactive)	> 100 µM (inactive)	86.7 µM (inactive)	> 100 µM (inactive)	72.1 µM (inactive)	> 100 µM (inactive)	> 100 µM (inactive)	> 100 µM (inactive)	85.7 µM (inactive)	> 100 µM (inactive)	–
CCCn1cnc2c(/N=N/O)ncnc21	> 100 µM (inactive)	> 100 µM (inactive)	> 100 µM (inactive)	> 100 µM (inactive)	> 100 µM (inactive)	> 100 µM (inactive)	> 100 µM (inactive)	> 100 µM (inactive)	–	> 100 µM (inactive)	–	> 100 µM (inactive)	> 100 µM (inactive)	> 100 µM (inactive)	> 100 µM (inactive)	> 100 µM (inactive)	> 100 µM (inactive)	> 100 µM (inactive)	> 100 µM (inactive)	> 100 µM (inactive)
COC1=C2CC(C)CC(OC)C(OC(=O)CN)[C@H](C)/C=C(\C)C(OC(N)=O)C(OC)/C=C\C=C(/C)C(=O)NC(=CC1=O)C2=O (some centres not stated)	0.481 µM (active)	0.306 µM (active)	0.498 µM (active)	0.281 µM (active)	0.369 µM (active)	0.855 µM (active)	1.1 µM (active)	0.451 µM (active)	3.32 µM (inactive)	0.339 µM (active)	3.84 µM (inactive)	0.42 µM (active)	1.24 µM (inactive)	0.468 µM (active)	0.159 µM (active)	3.44 µM (inactive)	1.58 µM (inactive)	–	0.351 µM (active)	0.708 µM (active)
Cc1cccc(/C=C2\CCCCCC2=O)c1	> 100 µM (inactive)	> 100 µM (inactive)	> 100 µM (inactive)	> 100 µM (inactive)	> 100 µM (inactive)	79.1 µM (inactive)	> 100 µM (inactive)	> 100 µM (inactive)	> 100 µM (inactive)	–	> 100 µM (inactive)	> 100 µM (inactive)	–	> 100 µM (inactive)	> 100 µM (inactive)	> 100 µM (inactive)	> 100 µM (inactive)	> 100 µM (inactive)	> 100 µM (inactive)	> 100 µM (inactive)
